# Experimental data reported in ChEMBL document CHEMBL1201862, “PubChem BioAssay data set” (2004).
# Activity calls are given as the source filed them.
# Experiments:
# [1] = AlphaScreen signal interference compounds, dose response, artefact control for ARNT-TACC3 interaction inhibitor project, biochemical, luminescence, cherry-pick (AID 651705); format: functional;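 also: AlphaScreen bead proximity signal that flags compounds interfering with the detection technology; potency reflects signal decrease which marks the compound as an assay artifact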
# [2] = molecular target: Tyrosine-protein phosphatase non-receptor type 5 (Homo sapiens, UniProt P54829); assay: STEP phosphatase inhibitors, confirmation, biochemical, fluorescence intensity, uHTS hits (AID 602372); format: functional; details: read-out: IC50_Mean
# Tyrosine-protein phosphatase non-receptor type 5, sequence (P54829 whole entry): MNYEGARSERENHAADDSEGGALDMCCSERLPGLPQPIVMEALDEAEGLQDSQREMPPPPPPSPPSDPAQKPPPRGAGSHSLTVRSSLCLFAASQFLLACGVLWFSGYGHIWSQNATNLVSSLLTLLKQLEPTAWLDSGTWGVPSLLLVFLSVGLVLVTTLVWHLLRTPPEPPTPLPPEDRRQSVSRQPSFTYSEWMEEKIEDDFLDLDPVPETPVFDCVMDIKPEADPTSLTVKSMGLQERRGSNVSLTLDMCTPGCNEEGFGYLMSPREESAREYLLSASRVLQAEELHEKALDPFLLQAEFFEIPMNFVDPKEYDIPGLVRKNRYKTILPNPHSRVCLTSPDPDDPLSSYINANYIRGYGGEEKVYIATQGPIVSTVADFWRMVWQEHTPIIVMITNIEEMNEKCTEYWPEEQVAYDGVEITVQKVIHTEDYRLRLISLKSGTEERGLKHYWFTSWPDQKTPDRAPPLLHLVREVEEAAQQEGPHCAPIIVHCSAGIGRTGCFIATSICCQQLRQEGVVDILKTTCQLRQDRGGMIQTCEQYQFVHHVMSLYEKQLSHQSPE
# [3] = molecular target: T1, Small ubiquitin-related modifier 1 (Homo sapiens, UniProt P63165); assay: inhibitors of SUMO1 partner interactions, dose response, biochemical, FRET (AID 624383); format: functional; details: read-out: IC50_Mean
# T1 sequence (P63165 whole entry): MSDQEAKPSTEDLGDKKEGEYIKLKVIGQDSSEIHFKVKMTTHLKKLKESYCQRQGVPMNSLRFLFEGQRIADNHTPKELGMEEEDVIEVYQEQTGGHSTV
# [4] = molecular target: T1, Small ubiquitin-related modifier 1; assay: inhibitors of SUMO1 peptide binding, dose response, biochemical, fluorescence polarization, uHTS hits (AID 624382); format: functional; details: read-out: IC50_Mean
# [5] = molecular target: T2, Dual specificity protein phosphatase 3 (Homo sapiens, UniProt P51452); assay: VHR1 phosphatase inhibitors, primary screen, biochemical, absorbance, uHTS (AID 1654)
# T2 sequence (P51452 whole entry): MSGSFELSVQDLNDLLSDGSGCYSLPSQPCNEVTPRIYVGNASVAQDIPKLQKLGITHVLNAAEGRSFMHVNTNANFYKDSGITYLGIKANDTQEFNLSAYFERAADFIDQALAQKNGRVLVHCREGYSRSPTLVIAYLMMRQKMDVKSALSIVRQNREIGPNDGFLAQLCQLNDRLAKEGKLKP
# [6] = molecular target: Tyrosine-protein phosphatase non-receptor type 11 (Homo sapiens, UniProt Q06124); assay: SHP2 phosphatase inhibition, dose response, selectivity assay for STEP inhibitor project, biochemical (AID 602367); format: functional; details: read-out: IC50_Mean
# Tyrosine-protein phosphatase non-receptor type 11, sequence (Q06124 whole entry): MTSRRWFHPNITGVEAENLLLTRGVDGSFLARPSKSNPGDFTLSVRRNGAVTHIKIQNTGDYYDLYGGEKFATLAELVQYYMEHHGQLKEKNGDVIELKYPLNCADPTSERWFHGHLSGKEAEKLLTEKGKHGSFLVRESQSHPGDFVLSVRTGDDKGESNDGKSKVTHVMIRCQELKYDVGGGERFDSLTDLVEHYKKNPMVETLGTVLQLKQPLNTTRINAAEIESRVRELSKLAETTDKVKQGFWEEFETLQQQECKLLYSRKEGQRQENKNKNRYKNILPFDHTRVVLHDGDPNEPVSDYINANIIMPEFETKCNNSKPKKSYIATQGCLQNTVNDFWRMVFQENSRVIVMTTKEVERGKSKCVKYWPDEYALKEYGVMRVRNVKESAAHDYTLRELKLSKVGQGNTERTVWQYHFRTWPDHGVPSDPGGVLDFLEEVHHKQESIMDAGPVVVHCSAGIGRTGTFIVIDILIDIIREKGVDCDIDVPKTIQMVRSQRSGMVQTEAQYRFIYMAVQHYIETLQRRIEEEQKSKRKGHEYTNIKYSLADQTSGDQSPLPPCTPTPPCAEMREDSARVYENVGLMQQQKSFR
# Genome polyprotein = Genome polyprotein (dengue virus type 2, UniProt P29990); assay: Dengue-2 NS5 methyltransferase inhibitors, primary screen, biochemical, confirmation dose response (AID 588689); format: functional
# Genome polyprotein, sequence (P29990 2492-3391 limits assumed): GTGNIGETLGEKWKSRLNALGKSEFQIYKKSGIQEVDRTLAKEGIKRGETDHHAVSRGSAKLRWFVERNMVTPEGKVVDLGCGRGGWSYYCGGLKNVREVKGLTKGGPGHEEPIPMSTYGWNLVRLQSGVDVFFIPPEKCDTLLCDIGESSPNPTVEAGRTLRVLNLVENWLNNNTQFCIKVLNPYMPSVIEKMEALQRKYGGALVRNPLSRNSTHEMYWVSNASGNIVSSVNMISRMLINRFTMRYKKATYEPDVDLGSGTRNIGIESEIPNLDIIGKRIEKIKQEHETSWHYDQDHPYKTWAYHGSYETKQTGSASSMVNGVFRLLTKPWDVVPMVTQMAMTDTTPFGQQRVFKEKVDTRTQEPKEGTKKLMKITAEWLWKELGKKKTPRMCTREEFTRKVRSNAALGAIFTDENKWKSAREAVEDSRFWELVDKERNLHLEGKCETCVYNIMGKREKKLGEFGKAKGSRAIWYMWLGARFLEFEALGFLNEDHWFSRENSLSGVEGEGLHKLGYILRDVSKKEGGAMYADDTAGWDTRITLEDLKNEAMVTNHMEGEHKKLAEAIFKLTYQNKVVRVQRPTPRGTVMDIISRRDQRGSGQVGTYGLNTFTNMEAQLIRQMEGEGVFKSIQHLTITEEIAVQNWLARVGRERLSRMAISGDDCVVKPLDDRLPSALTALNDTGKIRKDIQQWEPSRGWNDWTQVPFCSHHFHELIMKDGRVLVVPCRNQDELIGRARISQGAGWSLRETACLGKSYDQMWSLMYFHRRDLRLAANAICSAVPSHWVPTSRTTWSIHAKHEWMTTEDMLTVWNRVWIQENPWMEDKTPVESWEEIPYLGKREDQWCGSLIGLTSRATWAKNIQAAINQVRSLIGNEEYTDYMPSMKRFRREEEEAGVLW
# [7] = molecular target: T3, Low molecular weight phosphotyrosine protein phosphatase (Homo sapiens, UniProt P24666); format: functional; details: read-out: IC50_Mean
# T3 sequence (P24666 whole entry): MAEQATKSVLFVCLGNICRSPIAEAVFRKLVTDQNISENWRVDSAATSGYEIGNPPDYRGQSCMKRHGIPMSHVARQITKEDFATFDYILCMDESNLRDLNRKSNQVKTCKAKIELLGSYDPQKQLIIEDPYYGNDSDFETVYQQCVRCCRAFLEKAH
# [8] = molecular target: T2, Dual specificity protein phosphatase 3; assay: VHR1 phosphatase inhibitors, biochemical (AID 1878)
# [9] = molecular target: T4, Dual specificity protein phosphatase 6 (Rattus norvegicus, UniProt Q64346); assay: MKP-3 phosphatase inhibitors, primary screen, biochemical, rat enzyme, in vitro (AID 425)
# T4 sequence (Q64346 whole entry): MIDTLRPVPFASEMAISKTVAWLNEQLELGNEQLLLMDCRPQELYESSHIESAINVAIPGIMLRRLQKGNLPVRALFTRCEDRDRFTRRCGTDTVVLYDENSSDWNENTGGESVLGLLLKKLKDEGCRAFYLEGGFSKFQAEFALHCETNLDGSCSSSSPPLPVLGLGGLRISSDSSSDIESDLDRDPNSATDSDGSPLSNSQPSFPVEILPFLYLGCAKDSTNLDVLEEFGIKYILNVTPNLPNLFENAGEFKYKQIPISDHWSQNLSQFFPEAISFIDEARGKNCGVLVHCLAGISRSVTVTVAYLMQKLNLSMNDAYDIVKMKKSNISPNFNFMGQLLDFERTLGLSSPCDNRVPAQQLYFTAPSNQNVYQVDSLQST
# [10] = molecular target: T5, Tyrosine-protein phosphatase non-receptor type 22 (Homo sapiens, UniProt Q9Y2R2); assay: PTPN22 phosphatase inhibition, dose response, selectivity assay for STEP inhibitor project, biochemical (AID 624241); format: functional
# T5 sequence (Q9Y2R2 whole entry): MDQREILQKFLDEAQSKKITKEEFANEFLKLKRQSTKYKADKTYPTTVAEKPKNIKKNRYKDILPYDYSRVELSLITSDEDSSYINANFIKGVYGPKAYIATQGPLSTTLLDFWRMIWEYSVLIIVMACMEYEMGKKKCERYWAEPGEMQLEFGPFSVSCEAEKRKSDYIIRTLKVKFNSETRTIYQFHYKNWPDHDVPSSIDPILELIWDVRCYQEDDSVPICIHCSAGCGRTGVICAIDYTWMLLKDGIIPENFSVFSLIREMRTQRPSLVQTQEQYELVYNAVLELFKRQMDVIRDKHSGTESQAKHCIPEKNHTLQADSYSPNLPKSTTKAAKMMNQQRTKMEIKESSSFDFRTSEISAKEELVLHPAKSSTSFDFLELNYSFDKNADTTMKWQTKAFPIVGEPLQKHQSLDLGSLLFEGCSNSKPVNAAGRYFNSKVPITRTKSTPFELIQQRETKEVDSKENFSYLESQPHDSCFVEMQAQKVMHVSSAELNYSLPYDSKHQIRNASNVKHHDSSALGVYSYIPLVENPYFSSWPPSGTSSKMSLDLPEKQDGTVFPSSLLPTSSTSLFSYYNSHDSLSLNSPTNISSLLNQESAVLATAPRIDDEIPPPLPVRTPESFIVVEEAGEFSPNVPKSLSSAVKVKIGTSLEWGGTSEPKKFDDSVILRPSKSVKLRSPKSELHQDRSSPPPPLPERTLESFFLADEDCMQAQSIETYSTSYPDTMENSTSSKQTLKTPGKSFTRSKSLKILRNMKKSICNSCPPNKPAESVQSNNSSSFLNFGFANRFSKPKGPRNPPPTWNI
# [11] = molecular target: T3, Low molecular weight phosphotyrosine protein phosphatase; format: functional; details: read-out: IC50_Mean; remark: listed apart in the source
# [12] = molecular target: T6, Carboxy-terminal domain RNA polymerase II polypeptide A small phosphatase 1 (Homo sapiens, UniProt Q9GZU7); assay: inhibitors of CTDSP1, concentration-response testing, biochemical assay, absorbance-based, actives from ultra-high-throughput screening (AID 540297); format: functional
# T6 sequence (Q9GZU7 whole entry): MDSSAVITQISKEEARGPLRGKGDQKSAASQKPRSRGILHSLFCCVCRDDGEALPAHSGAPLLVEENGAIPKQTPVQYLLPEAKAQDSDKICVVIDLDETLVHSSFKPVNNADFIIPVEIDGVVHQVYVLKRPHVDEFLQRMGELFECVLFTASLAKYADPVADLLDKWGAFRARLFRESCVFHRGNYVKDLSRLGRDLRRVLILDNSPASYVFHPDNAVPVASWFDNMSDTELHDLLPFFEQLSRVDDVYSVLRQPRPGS
# Caspase-6 = molecular target: T7, Caspase-6 (Homo sapiens, UniProt P55212); assay: human caspase-6 inhibitors, dose response, biochemical, VEID-R110 fluorescence, cherry-pick (AID 720632)
# T7 sequence (P55212 whole entry): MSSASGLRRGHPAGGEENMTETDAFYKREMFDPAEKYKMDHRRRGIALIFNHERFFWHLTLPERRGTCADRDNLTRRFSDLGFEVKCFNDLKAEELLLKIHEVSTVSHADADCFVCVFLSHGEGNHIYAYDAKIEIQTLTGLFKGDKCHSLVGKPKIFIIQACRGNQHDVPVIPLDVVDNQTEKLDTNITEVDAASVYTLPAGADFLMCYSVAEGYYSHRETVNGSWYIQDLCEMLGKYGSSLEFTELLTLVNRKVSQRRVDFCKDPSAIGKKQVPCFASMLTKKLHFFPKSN
# [13] = molecular target: T2, Dual specificity protein phosphatase 3; assay: VHR phosphatase inhibition, dose response, selectivity assay for STEP inhibitor project, biochemical (AID 602374); format: functional; details: read-out: IC50_Mean
# Beta-lactamase [14] = molecular target: T8, Beta-lactamase (Pseudomonas aeruginosa, UniProt Q79MP6); assay: IMP-1 metallo-beta-lactamase inhibitors, dose response, selectivity assay for VIM-2 inhibitor project, biochemical, epi-absorbance (AID 1920)
# T8 sequence (Q79MP6 whole entry): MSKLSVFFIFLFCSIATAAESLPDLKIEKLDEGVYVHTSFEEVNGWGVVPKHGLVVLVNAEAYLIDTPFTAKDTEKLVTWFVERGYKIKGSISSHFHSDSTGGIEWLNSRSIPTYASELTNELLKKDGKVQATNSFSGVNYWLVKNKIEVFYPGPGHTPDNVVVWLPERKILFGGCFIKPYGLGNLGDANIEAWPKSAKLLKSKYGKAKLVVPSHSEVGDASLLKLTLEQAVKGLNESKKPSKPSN
# Beta-lactamase [15] = molecular target: Beta-lactamase (Salmonella choleraesuis (strain SC-B67), UniProt Q5J463); assay: Epi-absorbance-based counterscreen for selective VIM-2 inhibitors: dose response biochemical high throughput screening assay to identify inhibitors of TEM-1 serine-beta-lactamase.
# Beta-lactamase (Salmonella choleraesuis (strain SC-B67), UniProt Q5J463), sequence (Q5J463 whole entry): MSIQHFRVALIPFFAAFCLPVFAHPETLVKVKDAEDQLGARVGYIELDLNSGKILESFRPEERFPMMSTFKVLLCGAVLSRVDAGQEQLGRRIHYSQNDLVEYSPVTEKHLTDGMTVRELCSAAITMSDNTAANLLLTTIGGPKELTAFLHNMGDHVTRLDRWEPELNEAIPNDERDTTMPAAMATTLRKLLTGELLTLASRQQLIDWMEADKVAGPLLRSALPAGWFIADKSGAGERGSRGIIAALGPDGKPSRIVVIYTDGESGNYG
# Beta-lactamase [16] = molecular target: T8, Beta-lactamase; assay: […] counterscreen for selective VIM-2 inhibitors: dose response biochemical high throughput screening assay to identify inhibitors of IMP-1 metallo-beta-lactamase.
# [17] = molecular target: T9, High affinity choline transporter 1 (Homo sapiens, UniProt Q9GZV3); assay: CHT inhibitors, dose response, cell-based, 5-point CRC, membrane potential dye (AID 504840); format: functional
# T9 sequence (Q9GZV3 whole entry): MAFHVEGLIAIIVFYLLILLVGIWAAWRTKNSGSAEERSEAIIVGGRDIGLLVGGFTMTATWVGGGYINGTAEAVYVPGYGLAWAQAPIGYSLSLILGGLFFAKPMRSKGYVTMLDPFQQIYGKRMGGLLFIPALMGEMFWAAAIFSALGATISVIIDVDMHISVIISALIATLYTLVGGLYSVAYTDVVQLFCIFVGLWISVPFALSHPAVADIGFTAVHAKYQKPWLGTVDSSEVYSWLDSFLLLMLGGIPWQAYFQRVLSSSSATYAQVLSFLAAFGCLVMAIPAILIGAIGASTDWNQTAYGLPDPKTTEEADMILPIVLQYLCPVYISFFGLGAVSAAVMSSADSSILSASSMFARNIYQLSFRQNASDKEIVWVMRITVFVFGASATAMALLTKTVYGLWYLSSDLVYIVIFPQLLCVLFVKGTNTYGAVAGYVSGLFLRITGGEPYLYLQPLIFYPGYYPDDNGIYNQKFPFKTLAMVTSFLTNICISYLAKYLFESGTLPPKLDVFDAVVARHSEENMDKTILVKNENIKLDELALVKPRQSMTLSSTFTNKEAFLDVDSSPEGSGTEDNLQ
# [18] = molecular target: T9, High affinity choline transporter 1; assay: CHT inhibitors, dose response, cell-based, 10-point CRC, membrane potential dye (AID 588401); format: functional;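 also: membrane potential dye fluorescence of choline-evoked depolarization via CHT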
# [19] = molecular target: T9, High affinity choline transporter 1; assay: inhibitors of CHT choline uptake, dose response, cell-based, 3H-choline uptake, CHT LV-AA trafficking mutant, CRC (AID 602208); format: functional
compound,measurement,setting,value
O=C(Oc1cccc2cccnc12)c1ccco1,AC50,[1],131 µM (active)
Cc1c(CCC(=O)O)c(=O)oc2c(C)c(OCc3cc4c(cc3Cl)OCO4)ccc12,IC50,[2],3.97 µM (active)
same,IC50,[3],10.3 µM (active)
same,IC50,[4],> 66.6 µM (inactive)
same,IC50,[5],17.4 µM (active)
same,IC50,[6],1.51 µM (active)
same,IC50,Genome polyprotein,51.7 µM (active)
same,IC50,[7],8.04 µM (active)
same,IC50,[8],2.99 µM (active)
same,IC50,[9],78.7 µM (active)
same,IC50,[10],9 µM (active)
same,IC50,[11],24.9 µM (inactive)
same,IC50,[12],3.17 µM (active)
same,AC50,Caspase-6,7.15 µM (active)
same,IC50,[13],1.67 µM (active)
CCCCn1c(-c2ccoc2C)n[nH]c1=S,IC50,Beta-lactamase [14],> 59.6 µM (inactive)
same,IC50,Beta-lactamase [15],> 59.6 µM (inactive)
same,IC50,Beta-lactamase [16],> 59.6 µM (inactive)
CC1CCC(NC(=O)c2cccc(S(=O)(=O)NCc3ccccc3)c2)CC1 (stereo unspecified),IC50,[17],4.07 µM (active)
same,IC50,[18],3.64 µM (active)
same,IC50,[19],8.42 µM (active)
